Results from PMC9409992, “Immunosuppressive Cytochalasins from the Mangrove Endophytic Fungus Phomopsis asparagi DHS-48” (Marine Drugs, 2022).
Like-named read-outs stand apart in the source and are kept apart here.

How the values were obtained:
[1] = test system: ConA-induced T murine splenic lymphocytes; assay: ConA-induced T-cell (splenic lymphocyte) proliferation, CCK-8; assay type: cell-based, BALB/c mice; settings: Mus musculus, 48 h, read-out: IC50 ConA-Induced T-Cell Proliferation
Protocol: (§1) The isolated compounds (1–8) were evaluated for their immunosuppressive activities against the proliferation of ConA-induced T and LPS-induced B murine splenic lymphocytes, according to previously described protocols. […] The cytotoxicity of immunosuppressive Compounds 2 and 4–6 was tested in murine splenocyte cultures for 72 h using the tetrazolium salt-based CCK-8 assay. […] Thus, we selected this particular cytochalasin for the mechanism of action studies.
(§2) Spleen cells were collected from BALB/c mice under aseptic conditions, plated in a 96-well plate at a density of 1.5 × 10^6 cells/well and activated by Con A (5 μg/mL) or LPS (10 μg/mL) in the presence of various concentrations of compounds or cyclosporine A (CsA) at 37 °C and 5% CO2 for 48 h. Then, 20 μL CCK-8 was added to each well, 4 h before the end of the incubation. Absorbance at OD450 was measured on an ELISA reader, and the IC50 value was calculated from the correlation curve between the compound concentration and the OD450.

[2] = test system: LPS-induced B murine splenic lymphocytes; assay: LPS-induced B-cell (splenic lymphocyte) proliferation, CCK-8; assay type: cell-based, BALB/c mice; settings: Mus musculus, 48 h, read-out: IC50 LPS-Induced B-Cell Proliferation
Protocol: as §1, §2

[3] = Cytotoxicity / cell viability in normal splenocytes, CCK-8, 72 h; assay type: cell-based, BALB/c mice; settings: BALB/c, mouse, mean ± SD (n = 7), read-out: Cytotoxicity IC50, murine splenocytes
Protocol: as §1
(§3) Cell viability was evaluated using the CCK-8 method. Spleen cells were plated in a 96-well plate at a density of 1.5 × 10^6 cells/well. Then, the cells were incubated with various concentrations of compounds or 0.1% DMSO at 37 °C and 5% CO2 for 72 h. Proliferation was measured using the CCK-8 assay, as described above. Cyclosporin A (CsA) and cytochalasin D were used as positive controls.

murine splenocytes = assay: as above; assay type: cell-based, BALB/c mice; settings: mean ± SD (n = 7)
Protocol: as §1, §3

NFAT1 dephosphorylation = assay: Western blot of ConA-stimulated NFAT1 / NFAT-P in splenocytes; assay type: cell-based, BALB/c mice; settings: 50 μM
Protocol: (§4) The effect of 2 on ConA-stimulated NFAT1 and NFAT-P expression was determined by Western blotting. […] In contrast, in the ConA-stimulated cells in the absence of 2, the dephosphorylated form of NFAT1 was detected, as well as the phosphorylated form. […] After 48 h of stimulation with 5 μg/mL Con A, the fluorescent NFAT1 translocated to the nucleus. […] In addition, 2 formed hydrophobic interactions with residues ILE-436, ILE-474, ARG-477, VAL-490, and VAL-498 and intermolecular interactions with residues THR-126, GLN-127, ASP-313, and PRO-340. Therefore, the immunosuppressive activity of 2 is possibly, at least in part, mediated via CaN/NFAT signaling pathway-regulated Con A-stimulated activation of splenocytes (Figure 7), highlighting its potential for use as an effective noncytotoxic natural immunosuppressant.
Splenocytes were washed with PBS and lysed in PMSF lysate. After centrifugation at 12,000 rpm for 5 min, the protein concentration was determined using a BSA Protein Assay Kit. Protein lysates were separated using 10% sodium dodecyl sulfate–polyacrylamide gel electrophoresis (SDS–PAGE) and transferred to polyvinylidene difluoride (PVDF) membranes. After blocking, the membranes were incubated overnight with the respective primary antibodies against NFAT1, NFAT-P, and β-actin in 5% BSA, and the secondary antibody was horseradish peroxidase (HRP)-conjugated goat anti-rabbit IgG. […]

calcineurin (CN) = calcineurin (CN) (Homo sapiens, UniProt P63098+Q08209); assay: CN phosphatase assay (p-NPP substrate, spectrophotometric); assay type: biochemical; settings: 20 mM p-NPP substrate, pH 7.4; read-out: IC50 calcineurin (CN) inhibition
Sequence of calcineurin (CN) (P63098 whole entry, other chains not shown): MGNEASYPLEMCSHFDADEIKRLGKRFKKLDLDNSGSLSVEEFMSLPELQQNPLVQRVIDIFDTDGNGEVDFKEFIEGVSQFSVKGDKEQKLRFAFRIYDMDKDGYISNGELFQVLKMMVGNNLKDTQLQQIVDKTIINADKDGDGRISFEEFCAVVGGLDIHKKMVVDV
Protocol: A spectrophotometric assay was used to determine the activities of CN with 20 mM p-nitrophenyl phosphate (p-NPP) as the substrate in 1 mM CaCl2, 0.5 mM MnCl2, 2 mM CaM, 2 mM CNB, 1 mM DTT, 0.1 mg/mL bovine serum albumin (BSA), and 50 mM Tris-HCl (pH 7.4) at 4 °C. The reaction was initiated by the addition of CNA, various concentrations of compounds (6.25, 12.5, 25, 50 or 100 μM) were added, and the solution was preincubated for 10 min at 4 °C. The OD410 value was measured, and the inhibitory concentration (IC50) was calculated. DMSO (2%) was used as a vehicle control. CsA was used as a positive control.

IL-2 mRNA = IL-2 mRNA expression by real-time quantitative PCR in ConA-stimulated splenocytes; assay type: cell-based, BALB/c mice; settings: q-PCR, 48 h
Protocol: as §4
The obtained total RNA (2 µg) was used for cDNA synthesis with a Servicebio®RT First Strand cDNA Synthesis Kit with random primers, according to the manufacturer’s instructions. qPCR was performed ith SYBR Green qPCR Master Mix (High ROX) using ABI StepOne Plus Real-time Detection System and β-actin as internal control. […] The expression levels of genes were normalized to the expression of β-actin mRNA and analyzed using the delta-delta CT method (2^−ΔΔCT).

NFAT1 translocation = assay: Immunofluorescence of NFAT1 nuclear translocation in ConA-stimulated splenocytes; assay type: cell-based, BALB/c mice; settings: Con A 5 μg/mL, 48 h
Protocol: as §4
Splenocytes were seeded in a 24-well plate at a density of 5 × 10^6 cells/well, incubated with various concentrations of Compound 2 or CsA, and then activated by culturing with Con A (5 μg/mL) for 48 h. After treatment, the cells were fixed with 4% paraformaldehyde for 30 min, permeabilized in 0.5% Triton X-100 for 15 min, blocked with 5% BSA for 1 h, and then incubated overnight in the respective primary antibody; NFAT1 (D43B1) XP® Rabbit antibody was used at a 1:100 dilution in PBS. The corresponding fluorescent anti-rabbit IgG (H+L) secondary antibody was added for 1 h. […]

IL-2 = IL-2 ELISA of culture supernatants of ConA-stimulated splenocytes; assay type: cell-based, BALB/c mice
Protocol: as §4
Splenocytes were treated as described in the RT–qPCR section, and then the IL-2 levels in the obtained culture supernatants were measured using an enzyme-linked immunosorbent assay (ELISA) kit, according to the manufacturer’s instructions. Cytokine standard curves were used to calculate the amount of IL-2, and the absorbance of each well was read at OD450 using an ELISA reader.

SMILES | IC50 [1] [µM] | IC50 [2] [µM] | IC50 at 72 h [3] [µM] | further results
C=C1C(C)C2C(Cc3ccccc3)NC(=O)C23C(O)C(O)C2C(C)=CC(C)CC4OC1C3C42 (stereo not drawn) [Compound 5, phomopchalasin B] | 31.2 ± 2.5 | 154.4 ± 0.4 | 84.4 ± 0.3 | –
C=C1C(C)C2C(Cc3ccccc3)NC(=O)C23C(=O)C=CC(C)(O)CC(C)CC=CC3C1O (stereo not drawn) [Compound 8, fragiformin B] | > 200 | > 200 | – | –
C=C1C(C)C2C(Cc3ccccc3)NC(=O)C23C(OC(C)=O)C=CC(C)(O)CC(C)CC=CC3C1O (stereo not drawn) [Compound 6, cytochalasin H] | 11.2 ± 0.3 | 103 ± 1.1 | 42.2 ± 1.7 | IC50 (murine splenocytes): 42.2 ± 1.7 µM
C=C1C(C)C2C(Cc3ccccc3)NC(=O)C23C(O)C2C=C(C)CC(C)CC4OC1C3C42 (stereo not drawn) [Compound 1, Phomoparagin A] | > 200 | > 200 | – | –
C=C1C(C)C2C(Cc3ccccc3)NC(=O)C23C(O)C=CC(C)(O)CC(C)CC=CC3C1O (stereo not drawn) [Compound 7, cytochalasin J] | – | – | – | IC50 ([1]; Con A 5 μg/mL, CCK-8, mean ± SD, three experiments): > 200 µM; IC50 ([2]; LPS 10 μg/mL, CCK-8, mean ± SD, three experiments): > 200 µM
C=C1C(C)C2C(Cc3ccccc3)NC(=O)C23C=C2C=C(C)CC(C)CC(O)C2C3C1O (stereo not drawn) [Compound 3, Phomoparagin C] | > 200 | > 200 | – | –
C=C1[C@@H](C)[C@H]2[C@H](Cc3ccccc3)NC(=O)[C@]23[C@H](OC(C)=O)/C=C/[C@@](C)(O)C(=O)[C@@H](C)C/C=C/[C@H]3[C@@H]1O [Cytochalasin D, cytochalasin D, reference compound] | – | – | – | IC50 [3]: 1 µM
C=C1C(C)C2C(Cc3ccccc3)NC(=O)C23C(O)C2C=C(C)CC(C)CC(O)C2C3C1O (stereo not drawn) [Compound 4, phomopchalasin A] | 32.8 ± 2.4 | 145 ± 2.2 | 373.7 ± 3.3 | –
C=C1C(C)C2C(Cc3ccccc3)NC(=O)C23C(OC(C)=O)C2C=C(C)CC(C)CC(O)C2C3C1O (stereo not drawn) [Compound 2, Phomoparagin B] | 21.6 ± 1.7 | 78.5 ± 1.3 | 111.7 ± 1.1 | Effect on ConA-stimulated dephosphorylation of NFAT (NFAT1 dephosphorylation): strongly inhibited the dephosphorylation of NFAT; IC50 (calcineurin (CN)): 17.9 ± 0.4 µM; Transcription level of Con A-stimulated IL-2 mRNA (IL-2 mRNA): decreased with increasing concentrations of 2; Effect on Con A-stimulated translocation of NFAT1 from cytoplasm to nucleus (NFAT1 translocation): blocked the Con A-stimulated translocation of NFAT1 from the cytoplasm to the nucleus in a dose-dependent manner; IL-2 protein level (secretion) (IL-2): confirmed the effects of 2 at the IL-2 protein level
